The target in this assay is Recombinant human LSD1 (Homo sapiens, UniProt O60341). In words: LSD1 inhibition assay (HTRF LSD1 Histone H3K4 mono-demethylation assay, me1->me0). It is filed as biochemical. The conditions noted are these: 20 nM recombinant human LSD1, 95 nM H3K4(me1) biotinylated peptide, 15 min preincubation, 60 min at 25° C., read-out: LSD1 inhibition IC50 (nM range). Here is the method: LSD1 biochemical activity was measured using the HTRF® LSD1 Histone H3K4 mono-demethylation assay (me1->me0). Briefly, the enzymatic buffer was prepared by addition of 50 mM Tris-HCl (Sigma cat #T2663-IL), 50 mM NaCl (ThermoFisher cat #AM9759) and 0.01% Tween 20 (ThermoFisher cat #J20605.AP) in distilled water (final pH 8.5). This buffer was supplemented with 10 μM FAD (Fisher Scientific cat #11411838) and 1 mM DTT (Sigma cat #D0632). For the assay, H3K4(me1) biotinylated peptide substrate (Anaspec, cat #64355) was added to provide a final assay concentration of 95 nM. The streptavidin-XL665 (Cisbio cat #610SAXLA) and H3K4 me0-Eu(K) antibody-cryptate (Cisbio, cat #61 KAOKAD) detection reagents were mixed according to the manufacturer's instructions. Test compounds were diluted in DMSO in a series of 10 semi-log step doses; 10 nL of each compound dose were dispensed in 384 well plates. Recombinant human LSD1 was diluted into enzymatic buffer to provide a final assay concentration of 20 nM and added to the tested compounds for 15 minutes. The reaction was started by addition of the substrate and incubated at 25° C. for 60 minutes. The detection reagents were added, and the plate was incubated in the dark for 90 minutes. Fluorescence was measured on an Envision 2103 plate reader with optical setup for […] in the HTRF mode. The ratio of acceptor and donor emission signals was calculated for each well. Percent inhibition values were calculated from the HTRF ratios at different doses and fitted to a 4-parameter logistic curve to determine IC50 values. […]
(In general: Time-resolved FRET reads energy transfer from a long-lived donor to a nearby acceptor.)

Structures can show the parent of a compound that is named as a salt.

`N#Cc1ccc(-c2cccc(CC3CNCCO3)c2-c2ocnc2F)cc1F` (centres unmarked) [Example 29, 3-fluoro-2′-(4-fluoro-1,3-oxazol-5-yl)-3′-[(morpholin-2-yl)methyl]-[1,1′-biphenyl]-4-carbonitrile]: the IC50 (commonly the concentration that inhibits the measured activity by half) is 10 to 25 nM.

`Cc1cccnc1-c1ccc(CN2[C@@H]3CC[C@H]2[C@@H](N)C3)cc1-c1ccc(C#N)c(F)c1` (racemic) [Example 257, 5'-{[(1S,2S,4R)-2-amino-7-azabicyclo[2.2.1]heptan-7-yl]methyl}-3-fluoro-2'-(3-methylpyridin-2-yl)-[1,1'-biphenyl]-4-carbonitrile]: the IC50 is 10 to 25 nM.

Turning to `N#Cc1ccc(-c2cccc(C[C@H]3CNCCO3)c2-c2ocnc2F)cc1F` [Example 15, 3-fluoro-2′-(4-fluoro-1,3-oxazol-5-yl)-3′-{[(2S)-morpholin-2-yl]methyl}-[1,1′-biphenyl]-4-carbonitrile], the IC50 is < 10 nM.

Regarding `N#Cc1ccc(-c2ccc(F)c(CC3CNCCO3)c2-c2cncs2)cc1F` (centres unmarked) [Example 25, 3,4′-difluoro-3′-[(morpholin-2-yl)methyl]-2′-(1,3-thiazol-5-yl)-[1,1′-biphenyl]-4-carbonitrile], the 50% inhibitory concentration (IC50) is 10 to 25 nM.

As for `N#Cc1ccc(-c2cccc(CN3CCC4(CCCN4)C3)c2C2CC2)cc1F` (centres unmarked) [Example 266, Fc1cc(ccc1C#N)c2cccc(CN3CCC4(CCCN4)C3)c2C5CC5], the IC50 was in the range of 100 to 1000 nM.

For `Cc1c(CN2[C@@H]3CC[C@H]2[C@@H](N)C3)cccc1-c1ccc(C#N)c(F)c1` (racemic) [Example 306, 3'-{[(1S,2S,4R)-2-amino-7-azabicyclo[2.2.1]heptan-7-yl]methyl}-3-fluoro-2'-methyl-[1,1'-biphenyl]-4-carbonitrile], the IC50 is 100 to 1000 nM.

As to `Cc1cc(CC2CNCCO2)c(-c2ccns2)c(-c2ccc(C#N)cc2)c1` (centres unmarked) [Example 53, 5′-methyl-3′-[(morpholin-2-yl)methyl]-2′-(1,2-thiazol-5-yl)-[1,1′-biphenyl]-4-carbonitrile], the concentration for half-maximal inhibition (IC50) was in the range of 10 to 25 nM.

Consider `N#Cc1ccc(-c2cccc(CN3CC4(CCN4)C3)c2Cl)cc1F` [Example 292, 2'-chloro-3'-({1,6-diazaspiro[3.3]heptan-6-yl}methyl)-3-fluoro-[1,1'-biphenyl]-4-carbonitrile], for which the IC50 was > 1000 nM.

As to `Cc1cc(CC2CNCCO2)c(-c2cncs2)c(-c2ccc(C#N)cc2)c1` (centres unmarked) [Example 39, 5′-methyl-3′-[(morpholin-2-yl)methyl]-2′-(1,3-thiazol-5-yl)-[1,1′-biphenyl]-4-carbonitrile], the IC50 lay in the range of 10 to 25 nM.

With `N#Cc1ccc(-c2cccc(CN3CC4CC4(N)C3)c2Cl)cc1F` (centres unmarked) [Example 287, 3'-({1-amino-3-azabicyclo[3.1.0]hexan-3-yl}methyl)-2'-chloro-3-fluoro-[1,1'-biphenyl]-4-carbonitrile], the IC50 is > 1000 nM.

Consider `N#Cc1ccc(-c2cc(CC3CNCCO3)ccc2N2CCC3(CCOC3)CC2)cc1F` (centres unmarked) [Example 70, 3-fluoro-5′-[(morpholin-2-yl)methyl]-2′-{2-oxa-8-azaspiro[4.5]decan-8-yl}-[1,1′-biphenyl]-4-carbonitrile], for which the IC50 fell in the range of 25 to 100 nM.

Consider `CC1(C)CN(Cc2cccc(-c3ccc(C#N)c(F)c3)c2-c2ccns2)C[C@H]1N` (single isomer, unassigned) [Example 194], for which the IC50 is < 10 nM.

For `N#Cc1ccc(-c2cccc(CN3C[C@]4(N)CC[C@H]3C4)c2OC(F)F)cc1F` [Example 177, 3'-{[(1S,4S)-4-amino-2-azabicyclo[2.2.1]heptan-2-yl]methyl}-2'-(difluoromethoxy)-3-fluoro-[1,1'-biphenyl]-4-carbonitrile], the concentration for half-maximal inhibition (IC50) was < 10 nM.

Take `N#Cc1ccc(-c2ccc(F)c(CN3[C@@H]4CC[C@H]3[C@@H](N)C4)c2C2CC2)cc1F` (racemic) [Example 181, N[C@@H]1C[C@@H]2CC[C@H]1N2Cc3c(F)ccc(c4ccc(C#N)c(F)c4)c3C5CC5]: the IC50 is 10 to 25 nM.

On to `N#Cc1ccc(-c2cccc(CC3CNCCO3)c2-c2cnco2)cc1` (centres unmarked) [Example 27, 3′-[(morpholin-2-yl)methyl]-2′-(1,3-oxazol-5-yl)-[1,1′-biphenyl]-4-carbonitrile], for which the IC50 is 25 to 100 nM.

`COCCc1ccc(-c2ccc(CC3CNCCO3)cc2-c2ccc(C#N)c(F)c2)c(F)c1` (centres unmarked) [Example 83, 3-fluoro-2′-[2-fluoro-4-(2-methoxyethyl)phenyl]-5′-[(morpholin-2-yl)methyl]-[1,1′-biphenyl]-4-carbonitrile]: the 50% inhibitory concentration (IC50) lay within 25 to 100 nM.

Turning to `COC1CCN(c2ccc(CC3CNCCO3)cc2-c2ccc(C#N)c(F)c2)CC1` (centres unmarked) [Example 52, 3-fluoro-2′-(4-methoxypiperidin-1-yl)-5′-[(morpholin-2-yl)methyl]-[1,1′-biphenyl]-4-carbonitrile], the half-inhibitory concentration (IC50) was in the range of 100 to 1000 nM.

For `Cc1cnsc1-c1c(CC2CNCCO2)cccc1-c1ccc(C#N)c(F)c1` (centres unmarked) [Example 45, 3-fluoro-2′-(4-methyl-1,2-thiazol-5-yl)-3′-[(morpholin-2-yl)methyl]-[1,1′-biphenyl]-4-carbonitrile], the concentration for half-maximal inhibition (IC50) is 100 to 1000 nM.

Turning to `N#Cc1ccc(-c2cccc(CC3CNCCO3)c2-c2ccncc2)cc1F` (centres unmarked) [Example 148, 3-fluoro-3′-[(morpholin-2-yl)methyl]-2′-(pyridin-4-yl)-[1,1′-biphenyl]-4-carbonitile], the IC50 was 100 to 1000 nM.

For the compound `N#Cc1ccc(-c2cccc(CN3CCCC4(CCN4)C3)c2C2CC2)cc1F` (centres unmarked) [Example 267, 2'-cyclopropyl-3'-({1,6-diazaspiro[3.5]nonan-6-yl}methyl)-3-fluoro-[1,1'-biphenyl]-4-carbonitrile], the concentration for half-maximal inhibition (IC50) lay within 100 to 1000 nM.

Turning to `CN[C@@H]1CCN(Cc2cccc(-c3ccc(C#N)c(F)c3)c2C2CC2)C1` [Example 228, 2'-cyclopropyl-3-fluoro-3'-{[(3R)-3-(methylamino)pyrrolidin-1-yl]-methyl}-[1,1'-biphenyl]-4-carbonitrile], the IC50 lay in the range of 100 to 1000 nM.

Consider `N#Cc1ccc(-c2cccc(CC3CCNC3)c2-c2ccns2)cc1F` (centres unmarked) [Example 109, 2-fluoro-4-[2-isothiazol-5-yl-3-(pyrrolidin-3-ylmethyl)phenyl]benzonitrile; hydrochloride], for which the half-inhibitory concentration (IC50) is < 10 nM.

As for `N#Cc1ccc(-c2cc(CC3CNCCO3)ccc2N2CC(c3ccc(C4CC4)nc3)C2)cc1F` (centres unmarked) [Example 101, 2′-[3-(6-cyclopropylpyridin-3-yl)azetidin-1-yl]-3-fluoro-5′-[(morpholin-2-yl)methyl]-[1,1′-biphenyl]-4-carbonitrile], the 50% inhibitory concentration (IC50) lay within 100 to 1000 nM.

As for `N#Cc1ccc(-c2cccc(N3CCC4NCCC4C3)c2-c2ccns2)cc1F` (centres unmarked) [Example 108, 3-fluoro-3'-{octahydro-1H-pyrrolo[3,2-c]pyridin-5-yl}-2'-(1,2-thiazol-5-yl)-[1,1'-biphenyl]-4-carbonitrile], the IC50 is < 10 nM.

With `N#Cc1ccc(-c2cccc(C[C@H]3CNCCO3)c2-c2ccno2)cc1` (single isomer, unassigned) [Example 9], the IC50 was 10 to 25 nM.

Consider `N#Cc1ccc(-c2cc(CN3C[C@]4(N)CC[C@H]3C4)ccc2C2CC2)cc1F` [Example 308, 5'-{[(1S,4S)-4-amino-2-azabicyclo[2.2.1]heptan-2-yl]methyl}-2'-cyclopropyl-3-fluoro-[1,1'-biphenyl]-4-carbonitrile], for which the half-inhibitory concentration (IC50) fell in the range of 25 to 100 nM.

Take `CCc1cc(CC2CNCCO2)cc(-c2ccc(C#N)cc2)c1Cl` (centres unmarked) [Example 161, 2′-chloro-3′-ethyl-5′-[(morpholin-2-yl)methyl]-[1,1′-biphenyl]-4-carbonitrile]: the IC50 was > 1000 nM.

In the case of `CC(C)N(C)c1ccc(CN2CCN(C)CC2)cc1-c1ccc(C#N)c(F)c1` [Example 295, 3-fluoro-2'-[methyl(propan-2-yl)amino]-5'-[(4-methylpiperazin-1-yl)methyl]-[1,1'-biphenyl]-4-carbonitrile], the IC50 is > 1000 nM.

Take `Cc1ncsc1-c1c(CC2CNCCO2)cccc1-c1ccc(C#N)c(F)c1` (centres unmarked) [Example 24, 3-fluoro-2′-(4-methyl-1,3-thiazol-5-yl)-3′-[(morpholin-2-yl)methyl]-[1,1′-biphenyl]-4-carbonitrile]: the IC50 is 10 to 25 nM.

For `N#Cc1ccc(-c2cc(CN3[C@@H]4CC[C@H]3[C@@H](N)C4)ccc2-c2nccs2)cc1F` (racemic) [Example 253, 5'-{[(1S,2S,4R)-2-amino-7-azabicyclo[2.2.1]heptan-7-yl]methyl}-3-fluoro-2'-(1,3-thiazol-2-yl)-[1,1'-biphenyl]-4-carbonitrile], the concentration for half-maximal inhibition (IC50) was in the range of 25 to 100 nM.

On to `N#Cc1ccc(-c2cc(CN3[C@@H]4CC[C@H]3[C@@H](N)C4)ccc2COC(F)F)cc1F` (racemic) [Example 313, 5'-{[(1S,2S,4R)-2-amino-7-azabicyclo[2.2.1]heptan-7-yl]methyl}-2'-[(difluoromethoxy)methyl]-3-fluoro-[1,1'-biphenyl]-4-carbonitrile], for which the 50% inhibitory concentration (IC50) is 10 to 25 nM.

As for `C[C@]1(N)CCN(Cc2cccc(-c3ccc(C#N)c(F)c3)c2C2CC2)C1` [Example 202, 3'-{[(3S)-3-amino-3-methylpyrrolidin-1-yl]methyl}-2'-cyclopropyl-3-fluoro-[1,1'-biphenyl]-4-carbonitrile], the IC50 is 25 to 100 nM.

The record behind these values is patent US20260209214A1, “LSD1 MODULATORS” (RECURSION PHARMACEUTICALS, INC., priority 2022, published 2026).
